Data set [1] is described as follows: Pharmacokinetic study in SD rats. Format: in vivo. Here is the method: SD rats (N = 3 for each group, male) were fasted for 12 h before dosing (only for the oral administration). The test compound (VV116 or VV116-H) was administered intravenously at 5.0 mg/kg dissolved in DMSO-enthanol-PEG300-saline (5/5/40/50, v/v/v/v), and administered orally at 30 mg/kg dissolved in 40%PEG400+10% Kolliphor® HS15+50% ultrapure water. At 5 min, 0.25, 0.5, 1.0, 2.0, 4.0, 6.0, 8.0, and 24 h post-dosing, blood samples were collected from the jugular vein into EDTA-K2 tubes. […] samples were obtained following general procedures and the concentrations of analytes in the supernatant were analyzed by LC-MS/MS.

Data set [2] concerns RSV A2. It is filed as in vivo, Balb/c mice. To be noted: ribavirin 100 mg/kg b.i.d., day 4 p.i. Here is the method: Considering the potent effect of VV116 inhibiting RSV in vitro, we further tested the effect of […] against RSV in a mouse model. Ribavirin, the off-label used drug to treat RSV in the clinic, was employed as a control. To this end, 6–8-week Balb/c mice were intranasally infected with 4 × 10^6 FFU of RSV per mouse (day 0), and were then treated with VV116 (25, 50, and 100 mg/kg) or ribavirin (50 and 100 mg/kg) bis in die (b.i.d.) (supplementary Fig S3). […] Viral RNA level in the lung was measured with quantitative RT-PCR and virion load was measured with immunoplaque assay (Fig. 1e). […] We also evaluated the lung pathology of the challenged mice by histochemical analysis.
Specific pathogen-free (SPF) female Balb/c mice at the age of 6–8 weeks were purchased from Beijing Vital River Laboratory Animal Technology Co., Ltd. The mice were housed in an SPF environment under standard conditions. All mouse experiments were approved by the ethics committee of the Wuhan Institute of Virology, Chinese Academy of Science (permit number WIVA25202113). Thirty mice (5 animals per group, 6 groups) were anaesthetized with isoflurane and challenged with 4×10^6 FFU of RSV A2 intranasally (i.n.). The mice were given drugs by intragastric administration. Treatments were commenced in 1 h post infection and continued for 4 days. […] The weight of the mice was recorded daily. […]

Data set [3] has as its system RSV A2. Briefly: Inhibition of RSV A2 replication in A549 cells (qRT-PCR). Format: cell-based, respiratory syncytial virus. The settings on record: for EC50: human respiratory syncytial virus, RSV A2 MOI 2, 48 h. The procedure:
A549, HEp-2 or NHBE cells were plated into 48 well-plate and incubated overnight. Upon reaching 80% cell confluence, cells were infected RSV A2 (at an MOI of 2 in A549, MOI of 0.5 in HEp-2, and MOI of 1 in NHBE cells) for 2 h after cells were incubated for 1 h with varying concentrations of drugs. Then, the virus-drug mixture was removed, and cells were cultured with drug-containing medium. At 48 h post inoculation, total RNAs were extracted from cells and then in reverse transcription using PrimeScript RT reagent Kit with gDNA Eraser (TaKaRa). For determining the viral copies, absolute quantitative RT-PCR was performed with TB Green® Premix Ex Taq^TM II (TaKaRa). RSV A2 F fragment was quantified with primers 5’-[…]-3’; and 5’-[…]-3’
A general note: Quantitative PCR measures a nucleic acid by following its amplification.

Data set [4] can be described thus: Cellular toxicity in A549 cells (WST-8 cell viability). Format: cell-based. To be noted: human. The procedure:
Cell viability was performed in 96-well plate with triplicate for each concentration. All drugs were diluted 2 times with 9 gradients starting at 500 micromores in maintenance medium (DMEM containing 2% FBS). After 48 h incubation, the supernatant was removed, and 10 μL WST-8 (2-(2-methoxy-4-(phenyl)-3-(4-(phenyl) to 5 (2, 4-sulpho benzene) -2 h-tetrazolium monosodium salt) in maintenance medium was added in medium. Plates were measured at 450 nm wavelength using spectrophotometer (BioTek) after 2 h incubation, and cell viability was calculated.

A further data set has as its system RSV. Also on record: method as in PMID 8413475. To be noted: prophylactic treatment; cited from earlier work.
Where [5] appears, read: X1 (VV116) or GS-441524 (VV116-H), i.v. 5.0 mg/kg.
Where [6] appears, read: X1 (VV116) or GS-441524 (VV116-H), p.o. 30.0 mg/kg.
[7] abbreviates: A549 cells, 48 h, read-out: CC50.

Values joined by “and” are separate entries in the source; they are usually repeats but may differ in a detail not shown here. Equal entries are not always repeated. Where two headings read alike, the source gives them in different places.

The term Cmax denotes the maximum level reached in the sampled fluid or tissue. In general, Vss refers to a proportionality between amount in the body and measured concentration, not a real space. By Tmax is commonly meant the time from dosing to the highest level. With `CC(C)C(=O)OC[C@H]1O[C@@](C#N)(c2ccc3c(N)ncnn23)[C@H](OC(=O)C(C)C)[C@@H]1OC(=O)C(C)C` [VV116-H], the “Concentration of X1 or GS-441524 in plasma, Mean” value (shortened to “Concentration … Mean”) amounted to 1997 ng/mL in data set [1] (IV 5.0 mg/kg, 5 min); 1557 ng/mL in data set [1] (IV 5.0 mg/kg, 0.25 h); 983 ng/mL in data set [1] (IV 5.0 mg/kg, 0.5 h); 502 ng/mL in data set [1] (IV 5.0 mg/kg, 1.0 h); 158 ng/mL in data set [1] (IV 5.0 mg/kg, 2.0 h); 25 ng/mL in data set [1] (IV 5.0 mg/kg, 4.0 h). Also, the “Concentration … Mean” value is 11 ng/mL in data set [1] (IV 5.0 mg/kg, 6.0 h); 251 ng/mL in data set [1] (PO 30.0 mg/kg, 5 min); 1480 ng/mL in data set [1] (PO 30.0 mg/kg, 0.25 h); 1963 ng/mL in data set [1] (PO 30.0 mg/kg, 0.5 h); 1523 ng/mL in data set [1] (PO 30.0 mg/kg, 1.0 h); 1717 ng/mL in data set [1] (PO 30.0 mg/kg, 2.0 h). In addition, the “Concentration … Mean” value was determined as 860 ng/mL in data set [1] (PO 30.0 mg/kg, 4.0 h); 179 ng/mL in data set [1] (PO 30.0 mg/kg, 6.0 h); 76 ng/mL in data set [1] (PO 30.0 mg/kg, 8.0 h); 13 ng/mL in data set [1] (PO 30.0 mg/kg, 24.0 h). Further, the “Concentration of X1 or GS-441524 in plasma, individual rats” value (from here on “Concentration … individual rats”) was 1940 ng/mL and 1960 ng/mL and 2090 ng/mL in data set [1] (IV 5.0 mg/kg, 5 min, 5 mg/kg); 1560 ng/mL and 1620 ng/mL and 1490 ng/mL in data set [1] (IV 5.0 mg/kg, 0.25 h, 5 mg/kg); 1040 ng/mL and 921 ng/mL and 988 ng/mL in data set [1] (IV 5.0 mg/kg, 0.5 h, 5 mg/kg); 425 ng/mL and 522 ng/mL and 558 ng/mL in data set [1] (IV 5.0 mg/kg, 1.0 h, 5 mg/kg); 150 ng/mL and 163 ng/mL and 162 ng/mL in data set [1] (IV 5.0 mg/kg, 2.0 h, 5 mg/kg); 23.6 ng/mL and 24.3 ng/mL and 27.8 ng/mL in data set [1] (IV 5.0 mg/kg, 4.0 h, 5 mg/kg). In addition, the “Concentration … individual rats” value in data set [1] (IV 5.0 mg/kg, 6.0 h, 5 mg/kg) is “BQL (2×) and 11.2 ng/ml”; in data set [1] (IV 5.0 mg/kg, 8.0 h) it was “BQL”; in data set [1] (IV 5.0 mg/kg, 24.0 h), “BQL”; in data set [1] (PO 30.0 mg/kg, 5 min, 30 mg/kg) it was 122 ng/mL and 279 ng/mL and 353 ng/mL; in data set [1] (PO 30.0 mg/kg, 0.25 h, 30 mg/kg) it was 1450 ng/mL and 1180 ng/mL and 1810 ng/mL; in data set [1] (PO 30.0 mg/kg, 0.5 h, 30 mg/kg), 1790 ng/mL and 1440 ng/mL and 2660 ng/mL. Besides, the “Concentration … individual rats” value in data set [1] (PO 30.0 mg/kg, 1.0 h, 30 mg/kg) is 1570 ng/mL and 1490 ng/mL and 1510 ng/mL; in data set [1] (PO 30.0 mg/kg, 2.0 h, 30 mg/kg), 1610 ng/mL and 1730 ng/mL and 1810 ng/mL; in data set [1] (PO 30.0 mg/kg, 4.0 h, 30 mg/kg) it was 761 ng/mL and 995 ng/mL and 825 ng/mL; in data set [1] (PO 30.0 mg/kg, 6.0 h, 30 mg/kg) it was 154 ng/mL and 165 ng/mL and 218 ng/mL; in data set [1] (PO 30.0 mg/kg, 8.0 h, 30 mg/kg), 32.8 ng/mL and 90 ng/mL and 106 ng/mL; in data set [1] (PO 30.0 mg/kg, 24.0 h, 30 mg/kg), 9.79 ng/mL and 23.3 ng/mL and 6.27 ng/mL. The AUC0-t in data set [1] (setting [5]) stood at 1689 ± 80 ng·h/mL; in data set [1] (setting [6]), 7664 ± 802 ng·h/mL. The results for the “AUC0-∞” value in data set [1] (setting [5]) and in data set [1] (setting [6]) were 1709 ± 74 ng·h/mL and 7768 ± 827 ng·h/mL, respectively. The compound further came in with a CL in data set [1] (setting [5]) of 48.8 ± 2.1 mL/min/kg. Further, the figures for the Cmax in data set [1] (setting [5]) and in data set [1] (setting [6]) were 1997 ± 81 ng/mL and 2060 ± 520 ng/mL, respectively. For the same compound, the “MRT0-∞” value in data set [1] (setting [5]) was found to be 0.82 ± 0.05 h; in data set [1] (setting [6]), 3.47 ± 0.80 h. Moreover, the T1/2 was determined as 0.73 ± 0.07 h in data set [1] (setting [5]) and 4.59 ± 2.08 h in data set [1] (setting [6]). For the same compound, the Vss in data set [1] (setting [5]) worked out at 2.41 ± 0.05 L/kg. In addition, the Tmax in data set [1] (setting [6]) is 1.00 ± 0.87 h. The same compound yielded a F in data set [1] (X1 (VV116) or GS-441524 (VV116-H), p.o. 30.0 mg/kg vs i.v. 5.0 mg/kg) of 75.6%.

As for `NC(=O)c1ncn([C@@H]2O[C@H](CO)[C@@H](O)[C@H]2O)n1` [ribavirin, Ribavirin], in the data set with RSV A2 [2], the “Decrease of infectious titers in lung” value is reported as ~ 2.0 log10 and the “Decrease of viral RNA copies in lung” value is reported as ~ 1.5 log10.

In general, EC50 refers to the midpoint of the concentration-response curve. Low values mean an effect from little substance, high ones a need for much substance. As a reminder, the CC50 is the concentration at which the toxic effect on the cells reaches its halfway point. In the case of `Nc1ccn([C@@H]2O[C@@](CO)(CCl)[C@@H](O)[C@H]2F)c(=O)n1` [ALS-8112], in the data set with RSV A2 [3], the SI is recorded as > 1785 and a half-maximal response (EC50) required 280 ± 70 nM. In data set [4] (setting [7]), the CC50 at 48 h was > 500000 nM.

In the data set with RSV A2 [3], `[2H]c1cc([C@]2(C#N)O[C@H](COC(=O)C(C)C)[C@@H](OC(=O)C(C)C)[C@H]2OC(=O)C(C)C)n2ncnc(N)c12` [X6] showed an SI of 80 and an EC50 of 1200 ± 320 nM. For the same compound, the cytotoxic concentration (CC50) at 48 h in data set [4] (setting [7]) was found to be 95900 ± 9270 nM.

On to `CCC(CC)COC(=O)[C@H](C)N[P@](=O)(OC[C@H]1O[C@@](C#N)(c2ccc3c(N)ncnn23)[C@H](O)[C@@H]1O)Oc1ccccc1` [RDV, Remdesivir], for which, in the data set on RSV A2 [3], the SI is reported as 11300 and a half-maximal response (EC50) required 20 ± 3 nM. In addition, half-maximal cytotoxicity in data set [4] (CC50 at 48 h) was put at 226000 ± 11400 nM.

In the case of `N#C[C@@]1(c2ccc3c(N)ncnn23)O[C@H](CO)[C@@H](O)[C@H]1O` [GS-441524, 1′-CN-4-aza-7,9-dideazaadenosine C-nucleoside], in the data set with RSV A2 [3], the SI is > 608 and the EC50 was 820 ± 460 nM. The CC50 at 48 h in data set [4] (setting [7]) is > 500000 nM.

As for “palivizumab: approved prophylactic treatment for prevention of serious RSV lower respiratory tract disease in high-risk children”, the “Share of individuals in whom effective in preventing hospitalization” value in the data set with RSV is on record as ~ 50%.
